Activity calls are given as the source filed them.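 The calls were made as follows: active = compounds that block the Wnt3a luciferase reporter with IC50 at or below 20 µM, flagged as nonspecific; inactive = the rest.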
System: Wnt-LIGHT cells, Wnt3a-conditioned, luciferase reporter luminescence
Test: Wnt3a-driven reporter signaling inhibition, dose response, selectivity assay for Gli-SUFU antagonist project, Wnt-LIGHT cells, luminescence (AID 651570)

| SMILES | IC50 |
| --- | --- |
| O=C(Nc1ccccc1)C1=C[C@H](C2CCCCC2)C[C@H](OCCCCO)O1 | > 50 µM (inactive) |
| O=C(C[C@H]1C/C=C\C[C@H](NC(=O)OCC2c3ccccc3-c3ccccc32)C(=O)OC[C@@H]2CCCN2C1=O)N[C@H](CO)Cc1ccccc1 | > 50 µM (inactive) |
